Test results reported in patent US4160829A, “Antibacterial 1,2,4-oxadiazolylacetamido cephalosporins” (Gist-Brocades N.V., priority 1972, dated 1979).
Values after ≈ are worked out from the molar mass of the structure shown.

Legend:
pKa determined in water = format: physicochemical
Staph.aureus A 355 [1] = experiment: micro serial dilution test; format: cell-based, Staphylococcus aureus; settings: Staphylococcus aureus, A355; micro serial dilution (in brackets), about 18 hours, 30° C. or 37° C.; penicillinase-producing strain; read-out: minimal inhibitory concentration (MIC)
Prot.mirab. L 93 = experiment: agar serial dilution test; format: cell-based, Proteus mirabilis; settings: Proteus mirabilis; agar serial dilution, 24 hours, 37° C.; read-out: minimal inhibitory concentration (MIC)
Dipl.pneum. L 54 = experiment: agar serial dilution test; format: cell-based, Diplococcus pneumoniae; settings: Streptococcus pneumoniae; agar serial dilution, 24 hours, 37° C.; read-out: minimal inhibitory concentration (MIC)
Strep. faec. L 80 = experiment: agar serial dilution test; format: cell-based, Streptococcus faecalis; settings: Enterococcus faecalis; agar serial dilution, 24 hours, 37° C.; read-out: minimal inhibitory concentration (MIC)
Esch.coli U 20 = experiment: agar serial dilution test; format: cell-based, Escherichia coli; settings: Escherichia coli, U20; agar serial dilution, 24 hours, 37° C.; read-out: minimal inhibitory concentration (MIC)
Prot.mirab. A 1200 = experiment: agar serial dilution test; format: cell-based, Proteus mirabilis; settings: Proteus mirabilis, 24 h, agar serial dilution, 24 hours, 37° C.; read-out: minimal inhibitory concentration (MIC)
Staph.aureus A 321 = experiment: agar serial dilution test; format: cell-based, Staphylococcus aureus; settings: Staphylococcus aureus, A321, 24 h, agar serial dilution, 24 hours, 37° C.; read-out: minimal inhibitory concentration (MIC)
Pseud.aerug. H 10 = experiment: agar serial dilution test; format: cell-based; settings: agar serial dilution, 24 hours, 37° C.; read-out: minimal inhibitory concentration (MIC)
Bac.Subt.ATCC 6633 = experiment: agar serial dilution test; format: cell-based, Bacillus subtilis; settings: Bacillus subtilis, ATCC6633, 24 h, agar serial dilution, 24 hours, 37° C.; read-out: minimal inhibitory concentration (MIC)
Past.multo. A 723 = experiment: agar serial dilution test; format: cell-based, Pasteurella multocida; settings: Pasteurella multocida; agar serial dilution, 24 hours, 37° C.; read-out: minimal inhibitory concentration (MIC)
Prot.morg. 2241 = experiment: agar serial dilution test; format: cell-based; settings: 24 h, agar serial dilution, 24 hours, 37° C.; read-out: minimal inhibitory concentration (MIC)
[2] = test system: Pseud.aerug. Wyeth A 1058; experiment: agar serial dilution test; format: cell-based; settings: agar serial dilution, 24 hours, 37° C.; read-out: minimal inhibitory concentration (MIC)
Staph.aureus A 2000 [3] = experiment: agar serial dilution test; format: cell-based, Staphylococcus aureus; settings: Staphylococcus aureus, A2000, 24 h, agar serial dilution, 24 hours, 37° C.; read-out: minimal inhibitory concentration (MIC)
Prot.rettg. A 821 [4] = experiment: micro serial dilution test; format: cell-based, Proteus rettgeri; settings: Providencia rettgeri; micro serial dilution (in brackets), about 18 hours, 30° C. or 37° C.; read-out: minimal inhibitory concentration (MIC)
Staph.aureus A 355 [5] = experiment: agar serial dilution test; settings: Staphylococcus aureus, A355, 24 h, read-out: minimal inhibitory concentration (MIC), agar serial dilution, 24 hours, 37° C.; penicillinase-producing strain
Pseud.aerug. 2396 = experiment: agar serial dilution test; format: cell-based; settings: agar serial dilution, 24 hours, 37° C.; read-out: minimal inhibitory concentration (MIC)
Salm.dubl. P 43 = experiment: agar serial dilution test; format: cell-based, Salmonella dublin; settings: Salmonella enterica; agar serial dilution, 24 hours, 37° C.; read-out: minimal inhibitory concentration (MIC)
Salm.typh. R 127 = experiment: agar serial dilution test; format: cell-based; settings: 24 h, 37° C., read-out: minimal inhibitory concentration (MIC)
Staph.aureus A 2000 [6] = experiment: micro serial dilution test; format: cell-based, Staphylococcus aureus; settings: Staphylococcus aureus, A2000, 18 h, micro serial dilution (in brackets), about 18 hours, 30° C. or 37° C.; read-out: minimal inhibitory concentration (MIC)
Kleb.pneum. A 809 = experiment: agar serial dilution test; format: cell-based, Klebsiella pneumoniae; settings: Klebsiella pneumoniae; agar serial dilution, 24 hours, 37° C.; read-out: minimal inhibitory concentration (MIC)
Prot.mirab. H 3 = experiment: agar serial dilution test; format: cell-based, Proteus mirabilis; settings: Proteus mirabilis; agar serial dilution, 24 hours, 37° C.; read-out: minimal inhibitory concentration (MIC)
Staph.aureus A 2001 [7] = experiment: agar serial dilution test; format: cell-based, Staphylococcus aureus; settings: Staphylococcus aureus, A2001, 24 h, agar serial dilution, 24 hours, 37° C.; read-out: minimal inhibitory concentration (MIC)
Staph.aureus A 2001 [8] = experiment: micro serial dilution test; format: cell-based, Staphylococcus aureus; settings: Staphylococcus aureus, A2001, 18 h, micro serial dilution (in brackets), about 18 hours, 30° C. or 37° C.; read-out: minimal inhibitory concentration (MIC)
Bruc.melit. A 488 = experiment: microbe, parasite or virus in culture; format: cell-based; settings: Brucella melitensis, 24 h, read-out: minimal inhibitory concentration (MIC)
Prot.rettg. A 821 [9] = experiment: agar serial dilution test; format: cell-based, Proteus rettgeri; settings: Providencia rettgeri, 24 h, agar serial dilution, 24 hours, 37° C.; read-out: minimal inhibitory concentration (MIC)
Haem.infl. A 1030 [10] = experiment: agar serial dilution test; format: cell-based; settings: 24 hours, 37° C., read-out: minimal inhibitory concentration (MIC)
Strep.haem. A 266 = experiment: agar serial dilution test; format: cell-based, Streptococcus haemolyticus; settings: Streptococcus; agar serial dilution, 24 hours, 37° C.; read-out: minimal inhibitory concentration (MIC)
Haem.infl. A 1030 [11] = experiment: micro serial dilution test; format: cell-based; settings: 18 h, micro serial dilution (in brackets), about 18 hours, 30° C. or 37° C.; read-out: minimal inhibitory concentration (MIC)
Shig.equir. T 3 = experiment: agar serial dilution test; format: cell-based; settings: 24 h, 37° C., read-out: minimal inhibitory concentration (MIC)

SMILES: Cc1nc(CC(=O)O)no1 [Example 4, 5-methyl-1,2,4-oxadiazol-3-yl-acetic acid]
- pKa (pKa determined in water): ~3.4

SMILES: Cc1noc(CC(=O)O)n1 [Example 1, 3-methyl-1,2,4-oxadiazol-5-yl-acetic acid]
- pKa (pKa determined in water): 3.64

SMILES: Cc1nnc(SCC2=C(C(=O)O)N3C(=O)[C@@H](NC(=O)Cn4cnnn4)[C@H]3SC2)s1 [Cephazolin, reference compound]
- MIC (Staph.aureus A 355 [1]): 0.6 µg/mL (≈ 1.32 µM)
- MIC (Prot.mirab. L 93): 1.5 µg/mL (≈ 3.3 µM)
- MIC (Dipl.pneum. L 54): 0.25 µg/mL (≈ 0.55 µM)
- MIC (Strep. faec. L 80): 12.5 µg/mL (≈ 27.5 µM)
- MIC (Esch.coli U 20): 1.5 µg/mL (≈ 3.3 µM)
- MIC (Prot.mirab. A 1200): 6 µg/mL (≈ 13.2 µM)
- MIC (Staph.aureus A 321): 0.25 µg/mL (≈ 0.55 µM)
- MIC (Pseud.aerug. H 10): > 100 µg/mL
- MIC (Bac.Subt.ATCC 6633): 0.25 µg/mL (≈ 0.55 µM)
- MIC (Past.multo. A 723): 1.5 µg/mL (≈ 3.3 µM)
- MIC (Prot.morg. 2241): 25 µg/mL (≈ 55 µM)
- MIC [2]: > 100 µg/mL
- MIC (Staph.aureus A 2000 [3]): 0.75 µg/mL (≈ 1.65 µM)
- MIC (Prot.rettg. A 821 [4]): 1.2 µg/mL (≈ 2.64 µM)
- MIC (Staph.aureus A 355 [5]): 1.5 µg/mL (≈ 3.3 µM)
- MIC (Pseud.aerug. 2396): > 100 µg/mL
- MIC (Salm.dubl. P 43): 1.5 µg/mL (≈ 3.3 µM)
- MIC (Salm.typh. R 127): 3 µg/mL (≈ 6.6 µM)
- MIC (Staph.aureus A 2000 [6]): 0.9 µg/mL (≈ 1.98 µM)
- MIC (Kleb.pneum. A 809): 1.5 µg/mL (≈ 3.3 µM)
- MIC (Prot.mirab. H 3): 6 µg/mL (≈ 13.2 µM)
- MIC (Staph.aureus A 2001 [7]): 0.5 µg/mL (≈ 1.1 µM)
- MIC (Staph.aureus A 2001 [8]): 0.45 µg/mL (≈ 0.99 µM)

SMILES: CC1(C)S[C@@H]2[C@H](NC(=O)[C@H](N)c3ccccc3)C(=O)N2[C@H]1C(=O)O [Ampicillin, reference compound]
- MIC (Bruc.melit. A 488): 1 µg/mL (≈ 2.86 µM)
- MIC (Prot.mirab. L 93): 0.15 µg/mL (≈ 0.429 µM)
- MIC (Dipl.pneum. L 54): 0.06 µg/mL (≈ 0.172 µM)
- MIC (Strep. faec. L 80): 1 µg/mL (≈ 2.86 µM)
- MIC (Esch.coli U 20): 3 µg/mL (≈ 8.59 µM)
- MIC (Prot.rettg. A 821 [9]): 3 µg/mL (≈ 8.59 µM)
- MIC (Staph.aureus A 321): 0.12 µg/mL (≈ 0.343 µM)
- MIC (Pseud.aerug. H 10): 125 µg/mL (≈ 358 µM)
- MIC (Bac.Subt.ATCC 6633): 0.03 µg/mL (≈ 0.0859 µM)
- MIC (Past.multo. A 723): 0.25 µg/mL (≈ 0.715 µM)
- MIC (Prot.morg. 2241): 12.5 µg/mL (≈ 35.8 µM)
- MIC [2]: > 100 µg/mL
- MIC (Staph.aureus A 2000 [3]): 1.5 µg/mL (≈ 4.29 µM)
- MIC (Haem.infl. A 1030 [10]): < 125 µg/mL
- MIC (Staph.aureus A 355 [5]): 6 µg/mL (≈ 17.2 µM)
- MIC (Pseud.aerug. 2396): 12.5 µg/mL (≈ 35.8 µM)
- MIC (Salm.dubl. P 43): 1.5 µg/mL (≈ 4.29 µM)
- MIC (Strep.haem. A 266): < 0.015 µg/mL
- MIC (Kleb.pneum. A 809): 25 µg/mL (≈ 71.5 µM)
- MIC (Haem.infl. A 1030 [11]): 0.5 µg/mL (≈ 1.43 µM)
- MIC (Prot.mirab. H 3): 0.9 µg/mL (≈ 2.58 µM)
- MIC (Staph.aureus A 2001 [7]): 1 µg/mL (≈ 2.86 µM)
- MIC (Shig.equir. T 3): 1 µg/mL (≈ 2.86 µM)
